{
  "source": "paper PMC6859807",
  "about": "(Journal of Experimental Botany, 2019)",
  "target": "recombinant HvPAP14 (HvPAP14:MBP) (Hordeum vulgare, UniProt B4ESF2)",
  "sequence (B4ESF2 30-367)": "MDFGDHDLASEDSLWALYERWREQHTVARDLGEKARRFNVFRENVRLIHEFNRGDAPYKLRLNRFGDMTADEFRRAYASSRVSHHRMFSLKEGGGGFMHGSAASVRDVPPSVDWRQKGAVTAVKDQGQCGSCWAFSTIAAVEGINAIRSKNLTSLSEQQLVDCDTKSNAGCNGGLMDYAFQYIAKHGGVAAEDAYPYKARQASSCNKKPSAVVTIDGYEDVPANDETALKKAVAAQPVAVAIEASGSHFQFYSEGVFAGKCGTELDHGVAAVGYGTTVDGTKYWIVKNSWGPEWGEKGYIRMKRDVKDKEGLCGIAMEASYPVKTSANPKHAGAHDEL",
  "test": "fluorogenic cleavage, ratio of […] nm / […] nm emission",
  "format": "biochemical",
  "details": "20 uM substrate, pH 3.5-9; enzyme activated at pH 4.5",
  "note": "Residues, ends and D or L forms follow the SMILES beside them. *: point of attachment. AMC = Cc1cc(=O)oc2cc(N*)ccc12; Cbz = O=C(OCc1ccccc1)*",
  "data": [
    {"smiles": "Cc1cc(=O)oc2cc(NC(=O)[C@H](CCCNC(=N)N)NC(=O)[C@H](Cc3ccccc3)NC(=O)OCc3ccccc3)ccc12", "note": "[Z-FR-AMC] (Cbz-Phe-Arg-{AMC})", "values": [
      {"measurement": "fluorogenic cleavage, ratio of 440 nm / 393 nm emission", "value": "activity of the recombinant protein was therefore tested at different pH values using the fluorescent"}
    ]}
  ]
}
